In patent publication US20150065440A1 (Progen Pharmaceuticals Limited, priority 2007, published 2015):

Assays:
VEGF = target: T1, VEGF (Homo sapiens, UniProt P15692); assay: Growth factor binding assay (SPR solution affinity), VEGF; details: HBS-EP buffer, 25° C.
T1 sequence (P15692 207-395): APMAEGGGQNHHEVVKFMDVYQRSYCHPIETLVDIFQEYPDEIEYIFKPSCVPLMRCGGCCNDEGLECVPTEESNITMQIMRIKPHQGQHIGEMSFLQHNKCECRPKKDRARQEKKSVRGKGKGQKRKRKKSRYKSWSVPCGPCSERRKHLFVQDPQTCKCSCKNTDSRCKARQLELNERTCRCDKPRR
In short: (§1)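 Kd measured by SPR solution affinity: fixed growth factor with varying ligand competing for heparin-coated sensorchip, 25 °C. Buffer HBS-EP pH 7.4 (150 mM NaCl) for FGF-1 and VEGF; FGF-2 with 0.3 M NaCl. Duplicate values averaged.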

FGF-1 = FGF-1 (Homo sapiens, UniProt P05230); assay: Growth factor binding assay (SPR solution affinity), FGF-1; details: SPR, HBS-EP buffer, 25° C.; read-out: Kd FGF-1
FGF-2 = FGF-2 (Homo sapiens, UniProt P09038); assay: Growth factor binding assay (SPR solution affinity), FGF-2; details: SPR, HBS-EP buffer containing 0.3 M NaCl, 25° C.; read-out: Kd FGF-2
In short: as §1

[1] = test system: pooled normal human plasma; assay: Anticoagulant activity, APTT; details: 0.1 mg/mL in normal pooled human plasma
Method: APTT measurements were performed on a STAGO STA-Compact Coagulation Analyser using standard protocols according to the manufacturer's instructions. Unfractionated heparin (UFH) was used as a control.

[2] = test system: normal pooled human plasma; assay: Anticoagulant activity, Heptest; details: 0.1 mg/mL in normal pooled human plasma
HSV-1 = assay: Viral plaque number-reduction assay, HSV-1; details: plaques in GMK AH1 cells (Table 9, footnote b)
Method: African green monkey kidney (GMK AH1) cells^46 were cultured in Eagle's minimum essential medium (EMEM) supplemented with 2% calf serum, 0.05% Primaton RL substance (Kraft Inc., Norwich, USA) and antibiotics. Human epidermoid carcinoma (HEp-2) cells were cultured in Dulbecco's modified EMEM (DMEM) supplemented with 10% fetal calf serum and antibiotics. […] The RSV strain A-2^50 was used. The RSV stock was prepared as described by Hallak et al.^51 and stored at −70° C. in the presence of 40% sucrose^52.
The viral infectivity (the plaque number-reduction) assay and the plaque size-reduction assay were carried out as described previously^17. […] Subsequently, the cells were washed with 2 mL of EMEM and overlaid with 1% methylcellulose solution in EMEM. The plaques were visualized by staining with crystal violet solution after 2 (HSV-2) or 3 (HSV-1) days of incubation at 37° C. […] When the compounds were screened for anti-HSV or anti-RSV activity, mixtures of 200 PFU of the virus and the test compound (100 μg/mL) in serum-free EMEM were incubated for 10 min at room temperature before addition to cells and during the entire period of viral infection of cells and the development of viral plaques. In the plaque size-reduction assay, the compounds were added to cells (in methylcellulose overlay medium) after 2 h period of virus infection of cells in the absence of the inhibitor. After 2-3 days of incubation at 37° C., the viral plaques were visualized by staining the cells with 1% solution of crystal violet. For each compound tested, the images of twenty neighboring plaques were captured using a Leica DC300 digital camera attached to a Leitz-Wetzlar Diavert microscope. The area of each plaque was determined using IM500 image software (Leica). Similar protocols were used for RSV, except that the assays were performed in HEp-2 cells and DMEM supplemented with 2% heat-inactivated fetal calf serum was used instead of EMEM.

HSV-2 = assay: Viral plaque number-reduction assay, HSV-2; details: viral plaques in GMK AH1 cells (Table 9)
In short: (§2)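 200 PFU virus premixed 10 min with compound (100 μg/mL screen) and kept throughout infection. HSV plaques in GMK AH1 cells, RSV (strain A-2) in HEp-2 cells. Methylcellulose overlay, 37 °C, crystal violet staining after 2 days (HSV-2) or 3 days (HSV-1); plaque numbers counted.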

RSV = assay: Viral plaque number-reduction assay, RSV; details: viral plaques (Table 9)
In short: as §2

[3] = target: T2, recombinant human heparanase (Homo sapiens, UniProt Q9Y251); assay: Heparanase inhibition assay (fondaparinux cleavage, WST-1); details: read-out: Ki Heparanase; IC50 converted into Ki; fondaparinux 100 μM, pH 5.0
T2 sequence (Q9Y251 158-543 limits assumed): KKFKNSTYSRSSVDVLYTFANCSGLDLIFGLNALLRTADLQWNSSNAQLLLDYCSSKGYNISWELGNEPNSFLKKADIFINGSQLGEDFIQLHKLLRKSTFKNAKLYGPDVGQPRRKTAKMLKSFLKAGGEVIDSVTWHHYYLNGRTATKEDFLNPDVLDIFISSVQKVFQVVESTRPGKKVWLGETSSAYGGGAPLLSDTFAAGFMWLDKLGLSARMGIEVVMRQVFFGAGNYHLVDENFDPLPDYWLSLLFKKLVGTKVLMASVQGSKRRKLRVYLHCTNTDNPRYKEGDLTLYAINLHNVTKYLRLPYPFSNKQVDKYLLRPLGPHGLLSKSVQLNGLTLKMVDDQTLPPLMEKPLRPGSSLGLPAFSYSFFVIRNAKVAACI
T2 sequence (Q9Y251 36-109 limits assumed): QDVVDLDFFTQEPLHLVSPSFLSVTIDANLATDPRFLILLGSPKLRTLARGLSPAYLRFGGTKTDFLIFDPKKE

Chain of FGF-2 (P09038 143-288, species assumed): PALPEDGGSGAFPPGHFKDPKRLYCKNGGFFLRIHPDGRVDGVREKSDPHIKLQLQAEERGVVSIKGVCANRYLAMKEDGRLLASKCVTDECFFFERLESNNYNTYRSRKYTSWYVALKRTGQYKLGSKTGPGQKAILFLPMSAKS
Chain of FGF-1 (P05230 whole entry, species assumed): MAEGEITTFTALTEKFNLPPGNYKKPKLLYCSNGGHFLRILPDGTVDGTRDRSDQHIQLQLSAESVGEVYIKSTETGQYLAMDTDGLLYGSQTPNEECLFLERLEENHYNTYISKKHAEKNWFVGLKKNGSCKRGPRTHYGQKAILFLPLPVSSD

CC(C)CCC[C@@H](C)[C@H]1CC[C@H]2[C@@H]3CCC4CC(OCc5cn([C@@H]6O[C@H](COS(=O)(=O)[O-])[C@@H](O[C@H]7O[C@H](COS(=O)(=O)[O-])[C@@H](O[C@H]8O[C@H](COS(=O)(=O)[O-])[C@@H](OS(=O)(=O)[O-])[C@H](OS(=O)(=O)[O-])[C@H]8OS(=O)(=O)[O-])[C@H](OS(=O)(=O)[O-])[C@H]7OS(=O)(=O)[O-])[C@H](OS(=O)(=O)[O-])[C@H]6OS(=O)(=O)[O-])nn5)CC[C@]4(C)[C@H]3CC[C@]12C.[Na+].[Na+].[Na+].[Na+].[Na+].[Na+].[Na+].[Na+].[Na+].[Na+] (stereo partly drawn) [Compound 70, 4-(Cholestan-3-yl-oxymethyl)[1,2,3]triazol-1-yl 2,3,4,6-tetra-O-sodium sulfonato-α-D-glucopyranosyl-(1→4)-2,3,6-tri-O-sodium sulfonato-α-D-glucopyranosyl-(1→4)-1-deoxy-2,3,6-tri-O-sodium sulfonato-β-D-glucopyranoside]
Kd (VEGF): 95 ± 8 nM | Kd (FGF-1): 9.7 ± 0.8 nM | Kd (FGF-2): 390 ± 90 nM | APTT [1]: 104.0 s | Heptest [2]: 45.5 s | HSV-1 KOS321 strain IC50 (HSV-1): 0.25 µg/mL | HSV-2 IC50 (HSV-2): 0.15 µg/mL | RSV IC50 (RSV): 0.23 µg/mL | Ki [3]: 3.7 ± 0.8 nM
